Patent publication US20210030005A1, “BENZOXABOROLE COMPOSITIONS HAVING A GROWTH ENHANCING EFFECT” (BORAGEN, INC., priority 2018, published 2021)

Key:
[1] = system: Southern Rust of Maize (Puccinia polysora); assay: Field trial, Southern Rust of Maize severity on maize; type: in vivo
Description: In this example, diseased maize having Southern Rust of Maize (Puccinia polysora) was treated with BAG8, Azoxystrobin, and Boscalid. Testing was performed to assess the fungicidal effect of the compounds on Southern Rust of Maize (Puccinia polysora) and to assess the growth enhancing effect of the compounds on the diseased maize.
Maize was planted into 6×30 ft plots and replicated four times in a randomized complete block design. Three treatments and an untreated control were tested for efficacy against Southern Rust of Maize (Puccinia polysora) and assessed for yield at the conclusion of the growing season. Foliar applications of the three treatments, BAG8 at 0.25 pounds of active ingredient per acre, azoxystrobin at 0.25 pounds of active ingredient per acre, and boscalid at 0.24 pounds of active ingredient per acre, were applied to the plots at growth stage V8. Best practices were used consistently across the test plots with regard to field conditions such as fertilization, insect control, weed control, and irrigation. Disease assessments were taken in each plot 28 days after the foliar fungicide application. At maturity, each plot was harvested using standard harvesting equipment. After shelling, the kernels were weighed at 11% moisture and yield calculations extrapolated to bushels per acre.
(§1) Analysis of variance (ANOVA) was used to examine disease severity data and means were separated using Fisher's least significant difference (LSD) method at α=0.05. […]

[2] = system: turnips; assay: Soil drench growth enhancing effect, turnip; type: in vivo; conditions: for Average Dry Matter Weight / Average Root Length / Average Shoot Height: 4 treatments every 14 days, 14 days after final treatment
Description: (§2) Boron-containing compounds/compositions were applied directly to the soil, and the growth of plants was measured. An exemplary embodiment of a benzoxaborole compound includes 5-chlorobenzo[c][1,2]oxaborol-1(3H)-ol, which may be referred to herein as BAG8.
(§3) Eight 2-gallon pots were filled with steamed soil for each of the five treatments listed below:
(§4) 3-4 seeds were planted into each pot at a depth of 1 inch and covered. All seedlings were subjected to 16 hours of daylight at ˜800 μmol/m^2/second (light intensity) provided by cool-white fluorescent lamps. Daytime temperatures were ˜25° C. and were dropped to ˜18° C. at night.
(§5) Solutions were prepared by first dissolving the appropriate amount of benzoxaborole in ethanol or acetone then adding to distilled water. 100 mL of treatment was applied to each pot in a circular motion to evenly coat the surface of the soil. These treatments were applied every 14 days for a total of 4 treatments, including the at-planting treatment. Each pot was monitored, and 50 mL of distilled water was added to each pot when soil was dry.
(§6) Germination and shoot height data were recorded every seven days. 14 days after the final treatment application, plants were carefully removed from each pot and final shoot length, root length, and dry matter weight were recorded.
(§7) This experiment was conducted on red table beet, broccoli, snow pea, turnips, and spring wheat.

[3] = system: canola seedlings; assay: Soil drench treatment on canola seedlings (perlite); type: in vivo; conditions: for Mean Stem Length: 10 days after germination, measured 10 days following drench
Description: (§8) Sample soil drench treatments were prepared by dissolving […], 3.19 mg, or 3.99 mg of BAG8 in 67.5 mL of acetone in separate vials. Each vial was then added to 202.5 mL of water and shaken vigorously to produce a suitable sample for soil drench treatment at rates of 75 g/A, 100 g/A, and 125 g/A, respectively.
(§9) Canola seeds were sown into pots filled with perlite growth medium and allowed to germinate under normal glass house conditions. 10 days after germination the pots were drenched with the respective BAG8 solutions. 10 days following the drench, stem lengths were measured. Analysis of variance was used to examine stem length data and means were separated using Fisher's least significant difference at α=0.05.

[4] = system: Asian Soybean Rust (Phakopsora pachyrhizi); assay: Field trial, Asian Soybean Rust severity on soybean; type: in vivo
Description: (§10) In this example, diseased soybeans having Asian Soybean Rust (Phakopsora pachyrhizi) were treated with BAG8 and Azoxystrobin. Testing was performed to assess the fungicidal effect of the compounds on Asian Soybean Rust and to assess the growth enhancing effects of the compounds on the diseased soybeans.
(§11) Soybeans were planted into 6×30 ft plots and replicated four times in a randomized complete block design. Two treatments and an untreated control were tested for efficacy against Asian Soybean Rust (Phakopsora pachyrhizi) and assessed for yield at the conclusion of the growing season. Foliar applications of the two treatments, BAG8 at 0.25 pounds of active ingredient per acre and azoxystrobin at 0.25 pounds of active ingredient per acre, were applied to the plots at two separate times: growth stage R1 (flowering) and growth stage R3 (bean pod formation). Best practices were used consistently across the test plots with regard to field conditions such as fertilization, insect control, weed control, and irrigation. Disease assessments were taken in each plot 28 days after the final foliar fungicide application. At maturity, each plot was harvested using standard harvesting equipment. After shelling, the beans were weighed at 13% moisture and yield calculations extrapolated to bushels per acre.
as §1

[5] = system: broccoli; assay: Soil drench growth enhancing effect, broccoli; type: in vivo; conditions: for Average Dry Matter Weight / Average Root Length / Average Shoot Height: 4 treatments every 14 days, 14 days after final treatment
Description: as §2, §3, §4, §5, §6, §7

[6] = system: soybean seedlings; assay: Soil drench treatment on soybean seedlings (perlite); type: in vivo; conditions: for Mean Root Length: 10 days after germination, measured 10 days following drench
Description: as §8
as §9, with “Soybean seeds” for “Canola seeds”, “drench, root” for “drench, stem”

[7] = system: diseased soybeans; assay: Field trial, yield of diseased soybeans; type: in vivo, soybean
Description: as §10, §11, §1

[8] = system: red table beet; assay: Soil drench growth enhancing effect, red table beet; type: in vivo; conditions: for Average Dry Matter Weight / Average Root Length / Average Shoot Height: 4 treatments every 14 days, 14 days after final treatment
Description: as §2, §3, §4, §5, §6, §7

[9] = all rates (0.12-0.60 lb/A), soil drench
[10] = treatment B, 0.12 lb/A soil drench
[11] = treatment C, 0.25 lb/A soil drench
[12] = treatment D, 0.35 lb/A soil drench
[13] = treatment E, 0.60 lb/A soil drench

Structure (SMILES): OB1OCc2cc(Cl)ccc21 [BAG8, 5-chlorobenzo[c][1,2]oxaborol-1(3H)-ol]
- reduced disease relative to the untreated control ([1]; 0.25 lb ai/A foliar): 70%
- Disease Severity (% Leaf Coverage) ([1]; 0.25 lb ai/A foliar at V8, 28 days after application): 19.6 b % Leaf Coverage
- growth effect compared with untreated control [2, 9]: longer shoots, longer roots, and greater dry matter weight than the untreated control
- Average Dry Matter Weight [2, 10]: 6.40 mg
- Average Root Length [2, 10]: 3.67 cm
- Average Shoot Height [2, 10]: 1.81 cm
- Average Dry Matter Weight [2, 11]: 7.62 mg
- Average Root Length [2, 11]: 4.96 cm
- Average Shoot Height [2, 11]: 2.09 cm
- Average Dry Matter Weight [2, 12]: 7.82 mg
- Average Root Length [2, 12]: 4.02 cm
- Average Shoot Height [2, 12]: 2.18 cm
- Average Dry Matter Weight [2, 13]: 6.36 mg
- Average Root Length [2, 13]: 3.15 cm
- Average Shoot Height [2, 13]: 2.13 cm
- increased root length ([3]; all tested application rates, soil drench, canola seedlings): 19-65%
- Mean Stem Length ([3]; soil drench 75 g ai/A): 39.2 mm
- Mean Stem Length ([3]; soil drench 100 g ai/A): 33.8 mm
- Mean Stem Length ([3]; soil drench 125 g ai/A): 47.1 mm
- reduced disease in comparison to untreated control ([4]; 0.25 lb ai/A foliar): 47%
- Disease Severity (% Leaf Coverage) ([4]; 0.25 lb ai/A foliar at R1 and R3, 28 days after final application): 48.2 c % Leaf Coverage
- root length and dry matter weight compared with untreated control [5, 9]: longer roots and greater dry matter weight than the untreated control
- treatment effect on average shoot height ([5]; all rates, soil drench): no treatment effect was present
- Average Dry Matter Weight [5, 10]: 10.70 mg
- Average Root Length [5, 10]: 5.60 cm
- Average Shoot Height [5, 10]: 4.50 cm
- Average Dry Matter Weight [5, 11]: 11.10 mg
- Average Root Length [5, 11]: 5.20 cm
- Average Shoot Height [5, 11]: 4.40 cm
- Average Dry Matter Weight [5, 12]: 11.30 mg
- Average Root Length [5, 12]: 5.30 cm
- Average Shoot Height [5, 12]: 4.90 cm
- Average Dry Matter Weight [5, 13]: 13.00 mg
- Average Root Length [5, 13]: 6.50 cm
- Average Shoot Height [5, 13]: 4.50 cm
- increased root length ([6]; all tested application rates, soil drench, soybean seedlings (Table 12)): 6-27%
- Mean Root Length ([6]; soil drench 75 g ai/A): 329.5 mm
- Mean Root Length ([6]; soil drench 100 g ai/A): 275.8 mm
- Mean Root Length ([6]; soil drench 125 g ai/A): 309.7 mm
- increased soybean yield ([7]; 0.25 lb ai/A foliar): 281%
- Yield ([7]; 0.25 lb ai/A foliar at R1 and R3, harvest at maturity, 13% moisture): 55.6 a bu/A
- growth effect compared with untreated control ([8]; all application rates (0.12-0.60 lb/A), soil drench): longer shoots, longer roots, and greater dry matter weight than the untreated control
- Average Dry Matter Weight [8, 10]: 10.70 mg
- Average Root Length [8, 10]: 4.50 cm
- Average Shoot Height [8, 10]: 3.33 cm
- Average Dry Matter Weight [8, 11]: 11.10 mg
- Average Root Length [8, 11]: 5.98 cm
- Average Shoot Height [8, 11]: 4.24 cm
- Average Dry Matter Weight [8, 12]: 11.30 mg
- Average Root Length [8, 12]: 5.56 cm
- Average Shoot Height [8, 12]: 4.09 cm
- Average Dry Matter Weight [8, 13]: 13.00 mg
- Average Root Length [8, 13]: 5.15 cm
- Average Shoot Height [8, 13]: 5.01 cm
